Source: US20260241046A1, “PROSTATE-SPECIFIC MEMBRANE ANTIGEN RECEPTOR-TARGETING RADIOPHARMACEUTICALS AND USES THEREOF” (Nuclidium AG, priority 2024, published 2026)

Key:
[1] = Storage of lyophilized precursor; assay type: physicochemical; settings: lyophilized powder, kept at 25° C. for up to 14 days
[2] = Extended single-dose toxicity study (GLP); assay type: in vivo; settings: both sexes, mouse, in vivo, iv, 5 mg/kg; single i.v. dose, CD-1 mice; read-out: no adverse effect level (NOAEL)
Experimental: (§1) The study was designed as an extended single-dose toxicity study in one rodent species and performed under GLP conditions. NODAGA-PSMA I&T toxicity was evaluated after intravenous administration on day 1 of the study, followed by an observation period of 2 weeks. 60 (30 males and 30 females) CD-1 mice were divided into one dose group and one control group. The test item was administered once by i.v. administration into the tail vein. In each of the two groups, (I) 10 male and 10 female animals were euthanized the day after dosing, (II) 5 male and 5 female recovery animals were kept for an observation period of 2 weeks after dosing to detect possible delayed occurrence or persistence of, or recovery from toxic effects.
(§2) The dose animals' group was injected with 5 mg/kg NODAGA-PSMA I&T in 5% dimethyl sulfoxide (application volume 5 mL/kg) as a vehicle. The control group underwent injection of the vehicle alone (5 mL/kg). The animals were observed daily for signs of toxicity and morbidity/mortality. All animals were sacrificed for necropsy. Blood was taken at the time of necropsies to analyze hematological and clinical biochemistry parameters and urine for urinalysis. The wet weight of a tissue subset was taken, and a set of organs/tissues was preserved. A complete histopathological evaluation of the tissues was performed on treated and control animals.

[3] = test system: CD-1 mice; experiment: Extended single-dose toxicity study (GLP); assay type: in vivo
Experimental: as §1, §2

[4] = approved PET radiotracers, for comparison; cited from earlier work
[5] = Pharmacokinetics in healthy mice; assay type: in vivo
Experimental: The pharmacokinetics of the investigated radiopharmaceutical was evaluated in healthy female BALB/c mice from 1 to 24 hours. For the latest time points (12 and 24 hours), NODAGA-PSMA I&T was radiolabeled with ^64Cu obtained from the Tübingen University Hospital. The use of a different PET copper isotope is justified by the longer half-life of ^64Cu (t1/2=12.7 hours), which is more appropriate for tests that include delayed time points. Additionally, using an isotope from the same element ensures that the radiopharmaceutical retains its chemical and physical properties, guaranteeing consistency in the study. Mice were injected i.v. with 4 MBq (200 pmol) of [^61/64Cu]Cu-NODAGA-PSMA I&T diluted to 100 μL with saline solution. The data were combined with the results obtained from the groups of xenografts at 1 and 4 hours post-injection, as the biodistribution in nude mice was the same as in the healthy mice. The results are presented in Table 27 and are expressed as mean±standard deviation.

[6] = target: T1, PSMA (Homo sapiens, UniProt Q04609); experiment: Binding affinity (IC50), competition with [^125I]I-BAKuE on LNCaP cells; settings: 0.2 nM [^125I]I-BAKuE, 1 hour on ice
T1 construct: endogenous in cells; host or cells: LNCaP
T1 sequence (Q04609 whole entry): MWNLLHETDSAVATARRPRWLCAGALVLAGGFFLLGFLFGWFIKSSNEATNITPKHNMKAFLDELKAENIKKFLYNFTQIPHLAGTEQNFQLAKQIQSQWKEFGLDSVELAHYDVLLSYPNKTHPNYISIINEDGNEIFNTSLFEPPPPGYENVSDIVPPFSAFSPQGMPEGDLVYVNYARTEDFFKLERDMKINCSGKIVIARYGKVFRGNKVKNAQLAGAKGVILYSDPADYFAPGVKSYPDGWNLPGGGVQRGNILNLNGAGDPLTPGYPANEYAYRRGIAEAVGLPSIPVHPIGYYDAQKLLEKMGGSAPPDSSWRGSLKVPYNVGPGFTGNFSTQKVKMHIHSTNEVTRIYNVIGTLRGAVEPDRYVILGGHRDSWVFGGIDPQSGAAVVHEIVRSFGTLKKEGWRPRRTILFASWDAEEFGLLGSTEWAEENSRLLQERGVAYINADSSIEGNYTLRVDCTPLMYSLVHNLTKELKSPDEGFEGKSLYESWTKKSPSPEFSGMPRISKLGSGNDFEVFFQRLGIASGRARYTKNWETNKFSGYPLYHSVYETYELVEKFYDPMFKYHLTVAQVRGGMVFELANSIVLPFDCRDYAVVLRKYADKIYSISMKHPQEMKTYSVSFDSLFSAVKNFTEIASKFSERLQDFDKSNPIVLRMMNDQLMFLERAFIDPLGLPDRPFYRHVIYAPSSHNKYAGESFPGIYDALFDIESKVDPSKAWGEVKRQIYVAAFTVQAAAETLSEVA
Experimental: The binding affinity of NODAGA-PSMA I&T was determined by measuring IC50 by labelling the precursor with natural copper (^natCu). […] The radioiodinated ((S)-1-carboxy-5-(4-(-^125I-iodo-benzamido) pentyl) carbamoyl)-L-glutamic acid ([^125I]I-BAKuE) was used as reference radioligand. The assay was performed on LNCaP cells, human prostate cancer cells characterized by high expression levels of PSMA.
^natCu-NODAGA-PSMA I&T was produced by dissolving NODAGA-PSMA I&T (0.7 μmol) in 0.30 mL of ammonium acetate (0.5 M, pH 8), followed by the addition of 0.15 mL CuCl2 in 0.05 M hydrochloric acid. The reaction mixture was incubated for 15 min at 95° C. The product was purified from unlabeled ^natCu using a SepPak Classic C18 cartridge (Waters, Eschborn, Germany), washed with water, and eluted with 2 mL methanol. After evaporation of methanol, the product was reconstituted in 0.3 mg/mL 30% (v/v) acetonitrile in water.
The assay was performed on LNCaP cells seeded in 24-well plates. The cells were incubated with increasing concentrations of ^natCu-NODAGA-PSMA I&T (ranging from 0.1 up to 100 nM) in the presence of 0.2 nM [^125]I-BAKuE. After 1 hour of incubation on ice, the unbound (free) [^125I]I-BAKuE was collected by removing the medium (EMEM EBS) and the cells were detached with 1 M sodium hydroxide for counting (bound radioligand). […]

[7] = 5 mg/kg i.v., CD-1 mice, transitory, non-adverse
[8] = 12 hours post-injection (^64Cu)
[9] = 24 hours post-injection (^64Cu)

## O=C(O)CC[C@H](NC(=O)N[C@@H](CCCCNC(=O)CCCCCCC(=O)NCCCC[C@@H](NC(=O)[C@@H](Cc1ccccc1)NC(=O)[C@@H](Cc1ccc(O)c(I)c1)NC(=O)CC[C@H](C(=O)O)N1CCN(CC(=O)O)CCN(CC(=O)O)CC1)C(=O)O)C(=O)O)C(=O)O [NODAGA-PSMA I&T, NODAGA-(I-y) fk (Sub-KuE)]
[1]
  degradation on storage: no signs of degradation
[2]
  NOAEL at 2 weeks: 5 mg/kg
[3]; 5 mg/kg i.v., CD-1 mice
  clinical tolerance: clinically well-tolerated
  effects on body weight gain or food consumption: No effects on body weight gain or food consumption were noted
  effects on organ weights: No adverse effects on organ weights were noted
  macroscopic or microscopic findings: No macroscopic or microscopic findings that could be attributed to treatment
  treatment-related mortality or acute adverse effect: no treatment-related mortality or acute adverse effect was registered
[3]; [7]
  glucose level: decrease in glucose level
  platelet count: decrease in platelet count
  potassium level: increase in potassium level
[3]; versus intended average patient dose 0.4 μg/kg, with dose conversion factor
  safety ratio: 1000 times

## O=C(O)CC[C@H](NC(=O)N[C@@H](CCCCNC(=O)c1ccc([18F])nc1)C(=O)O)C(=O)O [Pylarify]
[4]
  Effective Dose: 0.017 mSv/MBq

## O=C([O-])CN1CCN(CC(=O)[O-])CCN([C@H](CCC(=O)N[C@H](Cc2ccc(O)c(I)c2)C(=O)N[C@H](Cc2ccccc2)C(=O)N[C@H](CCCCNC(=O)CCCCCCC(=O)NCCCC[C@H](NC(=O)N[C@@H](CCC(=O)O)C(=O)O)C(=O)O)C(=O)O)C(=O)O)CC1.[Cu+2] [[^61/64Cu]Cu-NODAGA-PSMA I&T]
[5]; 1 hour post-injection
  Biodistribution healthy mice, Adrenal: 14.38 ± 4.39 % AI/g
  Biodistribution healthy mice, Blood: 0.33 ± 0.09 % AI/g
  Biodistribution healthy mice, Femur: 2.48 ± 0.97 % AI/g
  Biodistribution healthy mice, Heart: 0.49 ± 0.12 % AI/g
  Biodistribution healthy mice, Intestine: 2.11 ± 0.85 % AI/g
  Biodistribution healthy mice, Kidneys: 124 ± 21 % AI/g
  Biodistribution healthy mice, Liver: 1.12 ± 0.25 % AI/g
  Biodistribution healthy mice, Lung: 1.49 ± 0.45 % AI/g
  Biodistribution healthy mice, Muscles: 0.99 ± 0.30 % AI/g
  Biodistribution healthy mice, Pancreas: 1.37 ± 0.90 % AI/g
  Biodistribution healthy mice, Salivary glands: 1.89 ± 0.28 % AI/g
  Biodistribution healthy mice, Spleen: 9.33 ± 3.81 % AI/g
  Biodistribution healthy mice, Stomach: 1.12 ± 0.15 % AI/g
[5]; 4 hours post-injection
  Biodistribution healthy mice, Adrenal: 7.31 ± 2.76 % AI/g
  Biodistribution healthy mice, Blood: 0.11 ± 0.03 % AI/g
  Biodistribution healthy mice, Femur: 1.34 ± 0.38 % AI/g
  Biodistribution healthy mice, Heart: 0.25 ± 0.06 % AI/g
  Biodistribution healthy mice, Intestine: 1.12 ± 0.48 % AI/g
  Biodistribution healthy mice, Kidneys: 94 ± 12 % AI/g
  Biodistribution healthy mice, Liver: 0.88 ± 0.25 % AI/g
  Biodistribution healthy mice, Lung: 0.68 ± 0.22 % AI/g
  Biodistribution healthy mice, Muscles: 0.45 ± 0.18 % AI/g
  Biodistribution healthy mice, Pancreas: 0.55 ± 0.16 % AI/g
  Biodistribution healthy mice, Salivary glands: 0.58 ± 0.12 % AI/g
  Biodistribution healthy mice, Spleen: 2.35 ± 1.45 % AI/g
  Biodistribution healthy mice, Stomach: 0.72 ± 0.15 % AI/g
[5]; [8]
  Biodistribution healthy mice, Adrenal: 2.99 ± 0.93 % AI/g
  Biodistribution healthy mice, Blood: 0.11 ± 0.01 % AI/g
  Biodistribution healthy mice, Femur: 0.50 ± 0.10 % AI/g
  Biodistribution healthy mice, Heart: 0.26 ± 0.05 % AI/g
  Biodistribution healthy mice, Intestine: 0.94 ± 0.41 % AI/g
  Biodistribution healthy mice, Kidneys: 60 ± 9 % AI/g
  Biodistribution healthy mice, Liver: 0.96 ± 0.18 % AI/g
  Biodistribution healthy mice, Lung: 0.52 ± 0.11 % AI/g
  Biodistribution healthy mice, Muscles: 0.25 ± 0.05 % AI/g
  Biodistribution healthy mice, Pancreas: 0.28 ± 0.04 % AI/g
  Biodistribution healthy mice, Salivary glands: 0.39 ± 0.05 % AI/g
  Biodistribution healthy mice, Spleen: 1.40 ± 0.57 % AI/g
  Biodistribution healthy mice, Stomach: 0.52 ± 0.03 % AI/g
[5]; 24 hours post-injection
  accumulated activity in the kidneys: < 20 % IA/g
[5]; [9]
  Biodistribution healthy mice, Adrenal: 1.17 ± 0.22 % AI/g
  Biodistribution healthy mice, Blood: 0.08 ± 0.01 % AI/g
  Biodistribution healthy mice, Femur: 0.20 ± 0.05 % AI/g
  Biodistribution healthy mice, Heart: 0.21 ± 0.02 % AI/g
  Biodistribution healthy mice, Intestine: 0.46 ± 0.11 % AI/g
  Biodistribution healthy mice, Kidneys: 16.1 ± 4.9 % AI/g
  Biodistribution healthy mice, Liver: 0.84 ± 0.11 % AI/g
  Biodistribution healthy mice, Lung: 0.32 ± 0.12 % AI/g
  Biodistribution healthy mice, Muscles: 0.08 ± 0.02 % AI/g
  Biodistribution healthy mice, Pancreas: 0.17 ± 0.03 % AI/g
  Biodistribution healthy mice, Salivary glands: 0.22 ± 0.05 % AI/g
  Biodistribution healthy mice, Spleen: 0.58 ± 0.15 % AI/g
  Biodistribution healthy mice, Stomach: 0.31 ± 0.05 % AI/g

## O=C([O-])CN(CCN(CC(=O)[O-])Cc1cc(CCC(=O)NCCCCCC(=O)NCCCC[C@H](NC(=O)N[C@@H](CCC(=O)O)C(=O)O)C(=O)O)ccc1[O-])Cc1cc(CCC(=O)O)ccc1[O-].[68Ga+3].[OH3+] [[^68Ga]Ga-PSMA-11]
[4]
  Effective Dose: 0.023 mSv/MBq

## O=C(O)CC[C@H](NC(=O)N[C@@H](CCCCNC(=O)CCCCCCC(=O)NCCCC[C@@H](NC(=O)[C@@H](Cc1ccccc1)NC(=O)[C@@H](Cc1ccc(O)c(I)c1)NC(=O)CC[C@H](C(=O)O)N1CCN2CCN(CC1)CC(=O)[O][Cu][O]C(=O)C2)C(=O)O)C(=O)O)C(=O)O [^natCu-NODAGA-PSMA I&T]
[6]
  IC50: 9.3 ± 1.8 nM
